Laboratory results from patent US20260014133A1, “SUBSTITUTED 3-(l-OXOISOINDOLIN-2-YL)PIPERIDINE-2,6-DIONE/2-(2,6-DIOXOPIPERIDIN-3-YL)ISOINDOLINE-l,3-DIONE ANALOGS AS MODULATORS OF CEREBLON PROTEIN” (St. Jude's Chidren's Research Hospital, Inc., priority 2022, published 2026).

Target: 6×His-CRBN-DDB1 protein (Homo sapiens (Human), UniProt Q96SW2)
Test: CRBN Fluorescence Polarization Assay
Assay type: binding
Conditions: competitive fluorescence polarization; Cy5-O-Len probe 30 nM, 6×His-CRBN-DDB1 200 nM; 1 hour at room temperature; mean of three independent determinations; read-out: CRBN FP (IC50)
Experimental: In this competitive fluorescent polarization assay Cy5 conjugated lenalidomide analog (Cy5-O-Len)^13 was used as a fluorescent probe. 6×His-CRBN-DDB1 protein (200 nM) and Cy5-O-Len probe (30 nM) were combined in 20 mM HEPES pH 7, 150 mM NaCl, 0.005% Tween-20 assay buffer. 20 μL of this assay cocktail was dispensed into wells of Corning 3821 black 384-well plates. Compounds were transferred to the assay plate from a dose-response plate using a Pintool on a Biomek FXP Laboratory Automation Workstation (Beckman Coulter). The plates were incubated in the dark for 1 hour at room temperature and then read on an Envision plate reader (PerkinElmer, Massachusetts, USA). IC50 values were determined using a proprietary software RISE (Robust Investigation of Screening Experiments), developed in house on the Pipeline Pilot platform (Biovia, v. 17.2.0). Data represent the mean of three independent determinations.
Cereblon binding activity was determined as described herein above, and the results are provided below in Table 2 for representative disclosed compounds. Compound number (“Cmpd No.”) refers to the compound number (and associated compound information such as structure, name, etc.) as provided in Table 1. In Table 2 below: cereblon binding IC50 values are categorized as follows: “A” represents IC50 value<1 μM, “B” represents IC50 value between 1 and 10 μM, and “C” represents IC50 value>10 μM.

Chain of 6×His-CRBN-DDB1 protein (Q96SW2 whole entry): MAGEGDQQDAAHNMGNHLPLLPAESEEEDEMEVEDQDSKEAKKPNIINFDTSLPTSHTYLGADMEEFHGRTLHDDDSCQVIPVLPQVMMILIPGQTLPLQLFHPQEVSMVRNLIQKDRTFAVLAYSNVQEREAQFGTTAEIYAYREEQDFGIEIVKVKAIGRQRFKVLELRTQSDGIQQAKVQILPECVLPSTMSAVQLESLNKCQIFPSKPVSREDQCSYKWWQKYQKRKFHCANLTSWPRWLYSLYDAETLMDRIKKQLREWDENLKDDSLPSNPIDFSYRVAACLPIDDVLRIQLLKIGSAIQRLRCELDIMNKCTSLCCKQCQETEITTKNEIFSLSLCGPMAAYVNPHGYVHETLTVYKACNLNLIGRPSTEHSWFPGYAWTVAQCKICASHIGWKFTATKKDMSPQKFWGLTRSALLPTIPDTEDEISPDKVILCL
Chain of 6×His-CRBN-DDB1 protein (Q16531 whole entry partner): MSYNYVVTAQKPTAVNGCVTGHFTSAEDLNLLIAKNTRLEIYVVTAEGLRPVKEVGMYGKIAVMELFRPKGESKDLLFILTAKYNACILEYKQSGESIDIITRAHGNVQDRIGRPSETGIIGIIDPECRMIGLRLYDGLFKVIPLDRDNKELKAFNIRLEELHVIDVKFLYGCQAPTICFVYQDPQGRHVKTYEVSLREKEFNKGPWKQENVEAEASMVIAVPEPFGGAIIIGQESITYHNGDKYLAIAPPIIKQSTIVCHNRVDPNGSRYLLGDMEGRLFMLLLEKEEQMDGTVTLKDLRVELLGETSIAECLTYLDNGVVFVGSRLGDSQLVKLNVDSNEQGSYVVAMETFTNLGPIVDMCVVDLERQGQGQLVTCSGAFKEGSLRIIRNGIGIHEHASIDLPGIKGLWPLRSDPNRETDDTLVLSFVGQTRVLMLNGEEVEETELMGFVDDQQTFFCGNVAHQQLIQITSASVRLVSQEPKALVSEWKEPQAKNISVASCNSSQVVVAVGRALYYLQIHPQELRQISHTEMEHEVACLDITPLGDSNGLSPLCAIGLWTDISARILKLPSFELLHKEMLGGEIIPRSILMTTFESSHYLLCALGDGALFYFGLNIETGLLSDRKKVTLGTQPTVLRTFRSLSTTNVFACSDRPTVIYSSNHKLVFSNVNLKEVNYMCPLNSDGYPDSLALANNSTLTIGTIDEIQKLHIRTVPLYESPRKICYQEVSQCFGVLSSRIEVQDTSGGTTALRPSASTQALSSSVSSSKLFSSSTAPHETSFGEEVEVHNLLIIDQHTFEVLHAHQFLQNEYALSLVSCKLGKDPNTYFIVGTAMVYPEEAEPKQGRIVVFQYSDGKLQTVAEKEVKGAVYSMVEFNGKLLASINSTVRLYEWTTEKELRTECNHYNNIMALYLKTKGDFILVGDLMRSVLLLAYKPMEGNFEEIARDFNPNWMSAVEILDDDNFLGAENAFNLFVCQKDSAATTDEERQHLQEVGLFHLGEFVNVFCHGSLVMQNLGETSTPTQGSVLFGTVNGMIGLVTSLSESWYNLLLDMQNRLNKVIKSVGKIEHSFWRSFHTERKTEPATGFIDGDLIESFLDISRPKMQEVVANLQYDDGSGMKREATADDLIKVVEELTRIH

Structure (SMILES) | IC50 [µM]
CC(C)c1ccccc1C(=O)Nc1ccc2c(c1)CN(C1CCC(=O)NC1=O)C2=O (centres unmarked) [Compound 42, N-(2-(2,6-dioxopiperidin-3-yl)-1-oxoisoindolin-5-yl)-2-isopropylbenzamide] | 1 to 10
O=C1CCC(N2Cc3cc(NC(=O)c4cccc(OC(F)(F)F)c4)ccc3C2=O)C(=O)N1 (centres unmarked) [Compound 44, N-(2-(2,6-dioxopiperidin-3-yl)-1-oxoisoindolin-5-yl)-3-(trifluoromethoxy)benzamide] | 1 to 10
O=C1CCC(N2Cc3cc(NC(=O)c4ccc(C5CC5)cc4)ccc3C2=O)C(=O)N1 (centres unmarked) [Compound 48, 4-cyclopropyl-N-(2-(2,6-dioxopiperidin-3-yl)-1-oxoisoindolin-5-yl)benzamide] | 1 to 10
O=C1CCC(N2Cc3cc(NC(=O)c4ccccc4C4CC4)ccc3C2=O)C(=O)N1 (centres unmarked) [Compound 49, 2-cyclopropyl-N-(2-(2,6-dioxopiperidin-3-yl)-1-oxoisoindolin-5-yl)benzamide] | 1 to 10
O=C1CCC(N2Cc3cc(NC(=O)c4cccc(C5CC5)c4)ccc3C2=O)C(=O)N1 (centres unmarked) [Compound 50, 3-cyclopropyl-N-(2-(2,6-dioxopiperidin-3-yl)-1-oxoisoindolin-5-yl)benzamide] | 1 to 10
N#Cc1ccc(C(=O)Nc2ccc3c(c2)CN(C2CCC(=O)NC2=O)C3=O)cc1 (centres unmarked) [Compound 52, 4-cyano-N-(2-(2,6-dioxopiperidin-3-yl)-1-oxoisoindolin-5-yl)benzamide] | 1 to 10
COCCOc1cccc(C(=O)Nc2ccc3c(c2)CN(C2CCC(=O)NC2=O)C3=O)c1 (centres unmarked) [Compound 53, N-(2-(2,6-dioxopiperidin-3-yl)-1-oxoisoindolin-5-yl)-3-(2-methoxyethoxy)benzamide] | 1 to 10
Cc1cc(C(=O)Nc2ccc3c(c2)CN(C2CCC(=O)NC2=O)C3=O)ccc1Br (centres unmarked) [Compound 54, 4-bromo-N-(2-(2,6-dioxopiperidin-3-yl)-1-oxoisoindolin-5-yl)-3-methylbenzamide] | 1 to 10
CCOc1cc(C)cc(C(=O)Nc2ccc3c(c2)CN(C2CCC(=O)NC2=O)C3=O)c1 (centres unmarked) [Compound 58, N-(2-(2,6-dioxopiperidin-3-yl)-1-oxoisoindolin-5-yl)-3-ethoxy-5-methylbenzamide] | 1 to 10

The next lines start with the values.

IC50 [µM] | Structure (SMILES)
1 to 10 | O=C1CCC(N2Cc3cc(NC(=O)c4ccc(OC(F)(F)F)cc4)ccc3C2=O)C(=O)N1 (centres unmarked) [Compound 43, N-(2-(2,6-dioxopiperidin-3-yl)-1-oxoisoindolin-5-yl)-4-(trifluoromethoxy)benzamide]
1 to 10 | O=C1CCC(N2Cc3cc(NC(=O)c4ccccc4OC(F)(F)F)ccc3C2=O)C(=O)N1 (centres unmarked) [Compound 45, N-(2-(2,6-dioxopiperidin-3-yl)-1-oxoisoindolin-5-yl)-2-(trifluoromethoxy)benzamide]
1 to 10 | CS(=O)(=O)Nc1ccc(C(=O)Nc2ccc3c(c2)CN(C2CCC(=O)NC2=O)C3=O)cc1 (centres unmarked) [Compound 46, N-(2-(2,6-dioxopiperidin-3-yl)-1-oxoisoindolin-5-yl)-4-(methylsulfonamido)benzamide]
1 to 10 | CS(=O)(=O)Nc1cccc(C(=O)Nc2ccc3c(c2)CN(C2CCC(=O)NC2=O)C3=O)c1 (centres unmarked) [Compound 47, N-(2-(2,6-dioxopiperidin-3-yl)-1-oxoisoindolin-5-yl)-3-(methylsulfonamido)benzamide]
1 to 10 | N#Cc1ccccc1C(=O)Nc1ccc2c(c1)CN(C1CCC(=O)NC1=O)C2=O (centres unmarked) [Compound 51, 2-cyano-N-(2-(2,6-dioxopiperidin-3-yl)-1-oxoisoindolin-5-yl)benzamide]
1 to 10 | Cc1cc(F)cc(C(=O)Nc2ccc3c(c2)CN(C2CCC(=O)NC2=O)C3=O)c1 (centres unmarked) [Compound 55]
1 to 10 | Cc1cc(C(=O)Nc2ccc3c(c2)CN(C2CCC(=O)NC2=O)C3=O)ccc1F (centres unmarked) [Compound 56, N-(2-(2,6-dioxopiperidin-3-yl)-1-oxoisoindolin-5-yl)-4-fluoro-3-methylbenzamide]
1 to 10 | Cc1cccc(C(=O)Nc2ccc3c(c2)CN(C2CCC(=O)NC2=O)C3=O)c1Cl (centres unmarked) [Compound 57, 2-chloro-N-(2-(2,6-dioxopiperidin-3-yl)-1-oxoisoindolin-5-yl)-3-methylbenzamide]
